Where “and” joins values, the source holds several entries; their conditions need not be identical. Identical values can stand only once.
Assays:
Adenovirus = Adenovirus IC50s for CMX001, serotypes/isolates; assay type: cell-based
RPTECs = experiment: RPTEC DNA replication (BrdU), metabolic activity (WST-1), proliferation (xCELLigence); assay type: cell-based, human; settings: for reduction of rate of RPTEC proliferation (xCelligence): CMX001 0.31 μM, 48 h postexposure
Protocol: (§1) RPTECs were infected with BKV(Dunlop). CMX001 was added before and 2 h postinfection (hpi). Cells and supernatants were harvested 24-72 hpi. BKV replication was examined by TaqMan assays, western blotting, IF staining and viability of RPTECs was examined by WST-1 assay, BrdU incorporation and a TaqMan assay.
(§2) To use more sensitive assays, host cell DNA replication and metabolic activity using BrdU incorporation and WST-1 assays in uninfected RPTECs were used. Addition of CMX001 reduced both DNA replication (FIG. 2a) and metabolic activity (FIG. 2b) of uninfected RPTECs in a concentration-dependent manner. Compared to untreated RPTECs, CMX001 at 0.08 to 10 μM decreased DNA replication by 15% to 93% and the metabolic activity by 41% to 88%, respectively.
(§3) The mitocondrial metabolic activity was monitored by the colorimetric WST-1 assay (Roche, Rotkreuz, Switzerland) measuring reduction of the Tetrazolium salt, WST-1, by mitochondrial dehydrogenases. DNA synthesis was quantified by colorimetric measurement of BrdU incorporation into DNA using the “Cell proliferation ELISA, BrdU” kit (Roche). The attachment and proliferation of the cells was measured as impedance using E-plates and the xCelligence system (Roche). In order for the RPTECs to attach and proliferate on the E-plates, the plates were first coated with fibronectin. Next the background impedance of the plates was monitored by addition of 100 μl medium to each well, before the plate was connected to the system and checked in the cell culture incubator for proper electrical-contacts. Subsequently, 100 μl cell suspension containing the indicated cell numbers was seeded. To determine the effect of BKV infection and CMX001 treatment, about 24 h after seeding 150 μl of the media was replaced with fresh media with or without purified BKV-Dunlop in the presence or absence of CMX001 (final concentration of 0.31 μM). The cells were grown for 96 h and impedance was measured every 15 minutes for the first 6 h then every 30 minutes. Impedance was expressed as an arbitrary unit called the Cell Index.

[1] = as above; assay type: cell-based, human; settings: human; BKV-infected RPTECs; read-out: CC-90 (BrdU incorporation reduced to approximately 10% of untreated infected cells)
Protocol: as §1, §2, §3

HSV-1 = experiment: In vitro potency against dsDNA viruses: HSV-1; assay type: cell-based
[2] = assay type: in vivo, human; settings: individual patients
CMV [3] = experiment: First fifteen EIND patients: CMV; assay type: in vivo, human; settings: six CMV patients, three evaluable
Description: Three were evaluable for viral load reductions and 3/3 responded. Two of the patients who could not be evaluated for reductions in CMV had undetectable levels throughout CMX001 therapy. One patient received only one dose of CMX001 with no virologic follow up.

[4] = Safety and pharmacokinetics of CMX001 in healthy volunteers; assay type: in vivo, human; settings: for AUC / Cmax: blood, Human, analyte = label
Protocol: An initial study was conducted to evaluate the safety and pharmacokinetics of CMX001 in healthy volunteers. The study consisted of a single dose arm (SD) and a multiple dose arm (MD). In the single dose arm 7 cohorts of 6 subjects were treated (4 subjects received active drug and 2 placebo). Enrollment was staggered as 2 subjects (one active, one placebo) followed by 4 subjects (Groups A and B). The estimated single doses for the two highest doses treated for a […] subject were 40 mg (0.6 mg/kg cohort 6) and 70 mg (1 mg/kg cohort 7). In the multiple dose arm, cohort 6MD received 0.1 mg/kg on Day 0, 6 and 12; Cohort 7MD received 0.2 mg/kg on Day 0, 6 and 12. Levels of cidofovir, CMX001 and CMX064 (major metabolite) were measured in blood and urine of subjects during the course of the study. Gastrointestinal (GI) monitoring of the subjects included (a) monitoring for clinical signs of GI adverse events, (b) monitoring for clinical symptoms using a visual Analog Scale, (c) monitoring for appetite loss/anorexia, nausea, vomiting, diarrhea, constipation and intestinal gas/bloating, (d) laboratory tests for fecal occult blood; serum electrolytes, urine specific gravity, BUN/creatinine ratio; serum albumin, and lipids, and (e) diagnostic studies (the Wireless capsule endoscopy (PillCam®, Given Imaging)).

CMV [5] = settings: human, in vivo
Vaccinia Virus = experiment: microbe, parasite or virus in culture; assay type: cell-based
JCV = experiment: Established JCV infection of SVG cells, in situ DNA hybridization; assay type: cell-based, JC virus; settings: 0.1 μM, four days
HPV 11 = experiment: In vitro potency against dsDNA viruses: HPV 11; assay type: cell-based
[6] = cohort 6, 600 μg/kg, still blinded

## CCCCCCCCCCCCCCCCOCCCOP(=O)(O)CO[C@H](CO)Cn1ccc(N)nc1=O [CMX001, Hexadecyloxypropyl-cidofovir]
Adenovirus; Ad14 (three isolates)
  IC50: 41 nM and 36 nM
Adenovirus; unidentified adenovirus, Ad3
  IC50: 48 nM
Adenovirus; unidentified adenovirus, Ad3 ATCC
  IC50: 34 nM
Adenovirus; unidentified adenovirus, Ad4
  IC50: 32 nM
Adenovirus; unidentified adenovirus, Ad4 ATCC
  IC50: 20 nM
Adenovirus; unidentified adenovirus, Ad5 ATCC
  IC50: 46 nM
Adenovirus; unidentified adenovirus, Ad7
  IC50: 34 nM
Adenovirus; unidentified adenovirus, Ad7 ATCC
  IC50: 65 nM
Adenovirus; unidentified adenovirus, Ad14 (three isolates)
  IC50: 34 nM
Adenovirus; unidentified adenovirus, Ad14 ATCC
  IC50: 22 nM
Adenovirus; unidentified adenovirus, Ad21
  IC50: 44 nM
RPTECs; exponentially growing BKV infected cells
  reduction of rate of RPTEC proliferation (xCelligence): approximately 35%
RPTECs; exponentially growing uninfected cells
  reduction of rate of RPTEC proliferation (xCelligence): approximately 25%
RPTECs; estimated, RPTECs
  SI-90: 62.5
[1]
  CC90: 10000 nM
HSV-1; CMX001 versus cidofovir EC50
  Enhanced Activity: 250
HSV-1; Human alphaherpesvirus 1, MRC5, MRC-5
  EC50: 60 nM
[2]; value on day one of CMX001 treatment
  WBC (3): 3.6 (3) and 5.2 (3) and 2.17 (3)
[2]; value on last day of CMX001 treatment
  WBC (4): 5.4 (4) and 4.3 (4)
CMV [3]
  evaluable patients responding (viral load reductions): 3/3
[4]; 0.05 mg/kg, CMX001 0.050 mg/kg
  AUC: 36.3 ng·h/mL
  Cmax: 5.63 ng/mL
[4]; 0.1 mg/kg, CMX001 0.100 mg/kg
  AUC: 133 ng·h/mL
  Cmax: 10.6 ng/mL
[4]; 0.2 mg/kg, CMX001 0.200 mg/kg
  AUC: 225 ng·h/mL
  Cmax: 24.5 ng/mL
[4]; 0.4 mg/kg, CMX001 0.400 mg/kg
  AUC: 526 ng·h/mL
  Cmax: 68.1 ng/mL
[4]; 0.6 mg/kg, CMX001 0.600 mg/kg
  AUC: 729 ng·h/mL
  Cmax: 115 ng/mL
[4]; CMX001 0.025 mg/kg
  AUC: 18.5 ng·h/mL
  Cmax: 2.36 ng/mL
[4]; [6]
  adverse events: No serious adverse events (SAEs)
  clinical laboratory values: No drug associated clinically significant changes to clinical laboratory values
CMV [5]
  serious adverse events: No trends were observed in serious adverse events
Vaccinia Virus; CMX001 versus cidofovir EC50
  Enhanced Activity: 57
Vaccinia Virus; Orthopoxvirus vaccinia, HFF
  EC50: 800 nM
JCV
  elimination of JCV positive cells, normalized to total cell number: 94%
HPV 11; A-431, A431
  EC50: 17000 nM
HPV 11; CMX001 versus cidofovir EC50
  Enhanced Activity: 42

Source: US20150141375A1 (priority 2009, published 2015)
